What all share (format): functional, cell-based
Test [1] concerns A375P. Briefly: (§1) Cytotoxicity against human A375P cells incubated for 24 hrs by MTT assay.
Test [2] has as its system MCF7. Kind of test: Cytotoxicity against human MCF7 cells incubated for 24 hrs by MTT assay. (Formazan colour is commonly taken as a measure of viable cells.)
For test [3], the system named is HT-29. Briefly: Cytotoxicity against human HT29 cells incubated for 24 hrs by MTT assay.
Test [4] deals with HepG2. Kind of test: Cytotoxicity against human HepG2 cells incubated for 48 hrs by MTT assay.
The test system of test [5] is A549. Briefly: Cytotoxicity against human A549 cells incubated for 48 hrs by MTT assay.
Test [6] is described as follows: as §1.

Molecules are shown by their SMILES. Activity calls are given as the source filed them. The calls are words filed in the database; no cut-off is given here.

On to `CC(C)(O)[C@H](O)Cc1cc(C(=O)/C=C/c2ccc(O)c(O)c2)c(O)cc1O`, for which the result in test [1], in test [2], in test [3], in test [4] and in test [5] was inactive.

Regarding `CC1(C)O[C@@H]1Cc1cc(C(=O)CCc2ccc(O)cc2)c(O)cc1O`, the result in test [1], in test [2], in test [3], in test [4] and in test [5] was inactive.

Take `CC1(C)O[C@H]1Cc1cc(C(=O)/C=C/c2ccc(O)cc2)c(O)cc1O`: the result in test [1], in test [2], in test [3], in test [4] and in test [5] was inactive.

As for `CC(C)(O)[C@@H](O)Cc1cc(C(=O)CCc2ccc(O)c(O)c2)c(O)cc1O`, the outcome in test [1], in test [2], in test [3], in test [4] and in test [5] was inactive.

For the molecule `CC(C)(O)[C@@H](O)Cc1cc(C(=O)CCc2ccc(O)cc2)c(O)cc1O`, the outcome in test [1], in test [2], in test [3], in test [4] and in test [5] was inactive.

Consider `CC1(C)O[C@@H]1Cc1cc(C(=O)CCc2ccc(O)c(O)c2)c(O)cc1O`, for which the result in test [1], in test [2], in test [3], in test [4] and in test [5] was inactive.

Regarding `CC1(C)O[C@H]1Cc1cc(C(=O)/C=C/c2ccc(O)c(O)c2)c(O)cc1O`, the outcome in test [1], in test [2], in test [3], in test [4] and in test [5] was inactive.

Usually IC50 stands for the concentration at which inhibition is half-maximal. High values mean a need for much substance, low ones inhibition by little substance. Consider `CC(C)=CCc1cc(C(=O)CCc2ccc(O)c(O)c2)c(O)cc1O`, for which the IC50 came out at 3.8 µM in test [6]; 3.8 µM in test [2] (MCF7, 24 h); 3.8 µM in test [3] (HT-29, 24 h); 3.8 µM in test [5] (A549, 48 h). In test [4], the result was inactive.

`CC(C)(O)[C@H](O)Cc1cc(C(=O)/C=C/c2ccc(O)cc2)c(O)cc1O`: the outcome in test [1], in test [2], in test [3], in test [4] and in test [5] was inactive.

Regarding `CC(C)(O)[C@H]1Cc2cc(C(=O)CCc3ccc(O)cc3)c(O)cc2O1`, the result in test [1], in test [2], in test [3], in test [4] and in test [5] was inactive.
